Test results published in PubChem BioAssay AID720587 (Broad Institute, 2013).

Test system: A673 Ewing sarcoma viability, CellTiter-Glo ATP luminescence, 72 h
Assay: EWS/Fli1-dependent A673 cell killing, confirmation, CellTiter-Glo luminescence, cherry-pick retest (AID 720587)

C[C@@H]1CN([C@H](C)CO)C(=O)c2cc(NC(=O)c3ccccc3)ccc2O[C@@H](C)CCCCO[C@H]1CN(C)C(=O)Nc1cccc2ccccc12
AC35: 2.17 µM

COc1ccc(Cn2cc3c(-c4ccc(F)cc4)nnc-3c3cc(OC)c(OC)cc32)cc1
AC35: 4.86 µM

COC(=O)C[C@@H]1CC[C@@H]2[C@@H](COc3ccc(NC(=O)Nc4cccc(Cl)c4)cc3C(=O)N2C)O1
AC35: 10.3 µM

CC(=O)OC1CC2(O)C3CCC4CC(O)CCC4(C)C3CCC2(C)C1C1=CC(=O)OC1 (configuration not stated)
AC35: 0.213 µM

COc1ccc(/C=C/C(=O)c2cc(F)ccc2OC(=O)c2ccccc2OC)cc1OC
AC35: 4.54 µM

CCCCNC(=O)C(c1ccc(OCC(=O)OC)c(C(=O)OC)c1)N(CCOC)C(=O)CCCCCN1C(=O)NC(c2ccc(-c3ccccc3)cc2)C(C(=O)OCc2ccccc2)=C1C (configuration not stated)
AC35: 7.63 µM

C[C@@H]1O[C@@H](O[C@H]2C[C@@H](O)[C@]3(CO)[C@@H]4C(CC[C@]3(O)C2)[C@@]2(O)CC[C@H](C3COC(=O)C3)[C@@]2(C)C[C@H]4O)[C@H](O)[C@H](O)[C@H]1O (some centres not stated)
AC35: 2.3 µM

Cc1c(N=Cc2cc(Br)cc(Br)c2O)cccc1C(=O)O
AC35: 20 µM

O=C(c1nnsc1S(=O)c1ccc(Cl)cc1)N1CCOCC1 (configuration not stated)
AC35: 5.46 µM

COc1cc(-c2coc3c(C(=O)NCc4ccc(C(F)(F)F)cc4)cccc23)ccc1O
AC35: 13.7 µM

O=C(NCc1ccc(F)cc1)N1[C@H]2CC[C@@H]1C=C(c1ccc(F)cc1OCc1ccccc1)C2
AC35: 1.89 µM

O=C(Nc1ccc(F)cc1)N1CCCCN2[C@@H](CO)[C@H](c3ccc(C4=CCCCC4)cc3)[C@@H]2C1
AC35: 10.2 µM

CCOc1cc2[nH]c(=S)n(Cc3ccc(C(=O)NCCN(CC)CC)cc3)c(=O)c2cc1OCC
AC35: 12 µM

CC(C)N1C/C(=C/c2ccsc2)C(=O)/C(=C/c2ccsc2)C1
AC35: 5.27 µM

COc1ccc(S(=O)(=O)N2CC[C@@H]3[C@@H](CO)Nc4ccc(-c5ccc(C#N)cc5)cc4[C@@H]32)cc1
AC35: 8.87 µM

Cc1nn(Cc2ccccc2Cl)c2sc(C(=O)Nc3ccccc3N3CCOCC3)cc12
AC35: 13.5 µM

O=C1c2ccc3c4c(ccc(c24)C(=O)N1c1cccc(O)c1)C(=O)N(c1cccc(O)c1)C3=O
AC35: 2.47 µM

COc1ccc(OC)c(/C=C/c2ccnc3ccccc23)c1
AC35: 1.7 µM

Brc1ccc(CSc2nnc(-c3ccco3)o2)cc1
AC35: 6.49 µM

CCN1C/C(=C/c2ccc(N3CCOCC3)cc2)C(=O)/C(=C/c2ccc(N3CCOCC3)cc2)C1
AC35: 3.68 µM

C[C@@H]1CN([C@@H](C)CO)C(=O)Cc2cc(NS(=O)(=O)c3cccs3)ccc2O[C@H]1CN(C)Cc1ccc(Cl)c(Cl)c1
AC35: 12.5 µM

Nc1nc2cc3c(cc2cc1C(=O)NCCc1c[nH]c2ccccc12)OCO3
AC35: 8.07 µM

COc1ccc(OC)c(-c2nnc3n2N=C(c2ccc(OC)c(OC4CCOC4)c2)CS3)c1 (configuration not stated)
AC35: 3.24 µM

C[C@@H]1CN([C@H](C)CO)S(=O)(=O)c2ccc(C#CC(C)(C)O)cc2O[C@H]1CN(C)Cc1ccc(-c2ccccc2)cc1
AC35: 7.19 µM

Cc1ccc(S(=O)(=O)Nc2ccc3c(c2)C(=O)N([C@@H](C)CO)C[C@@H](C)[C@H](CN(C)Cc2ccc(C(F)(F)F)cc2)OCCCC[C@H](C)O3)cc1
AC35: 12.1 µM

COc1ccc(S(=O)(=O)Nc2ccc3c(c2)C(=O)N([C@H](C)CO)C[C@@H](C)[C@@H](CN(C)Cc2ccc(C(=O)Nc4ccccc4N)cc2)O3)cc1
AC35: 12.5 µM

C[C@]12CC[C@H](O)C[C@H]1CC[C@@H]1[C@@H]2CC[C@]2(C)[C@@H](C3=CC(=O)OC3)CC[C@]12O
AC35: 0.62 µM

CN(C)CC1CCC/C(=C\c2ccc(OC(=O)c3ccc(Cl)cc3)cc2)C1=O (configuration not stated)
AC35: 0.771 µM

Cc1c(CCOC(=O)CC23CC4CC(CC(C)(C4)C2)C3)sc[n+]1CC(=O)c1ccccc1
AC35: 19.5 µM

N#C[C@@H]1[C@H](c2ccc(C#Cc3ccc(F)cc3)cc2)[C@@H](CO)N1C(=O)Nc1ccc(F)cc1
AC35: 12.3 µM

C[C@@H]1CN([C@H](C)CO)C(=O)c2cc(NC(=O)Nc3ccccc3)ccc2O[C@@H]1CN(C)Cc1ccc(C(=O)Nc2ccccc2N)cc1
AC35: 9.7 µM

C[C@@H]1CN([C@@H](C)CO)C(=O)c2cccc(NC(=O)Nc3cccc4ccccc34)c2O[C@@H]1CN(C)Cc1ccc(C(=O)Nc2ccccc2N)cc1
AC35: 14.8 µM

O=C(CCCN1C(=O)S/C(=C\c2ccccc2)C1=O)NNC(=O)c1ccccc1O
AC35: 18.7 µM

COc1ccc(C(CCNCc2ccc(OC(C)C)cc2)C(C)C)cc1 (configuration not stated)
AC35: 12.6 µM

CC(=O)OC1CC(OC2C(O)CC(OC3C(O)CC(OC4CCC5(C)C(CCC6C5CCC5(C)C(C7=CC(=O)OC7)CCC65O)C4)OC3C)OC2C)OC(C)C1OC1OC(CO)C(O)C(O)C1O (configuration not stated)
AC35: 0.105 µM

C[C@H]1CN([C@@H](C)CO)C(=O)c2cc(N(C)C)ccc2O[C@@H]1CN(C)Cc1ccc(C(=O)Nc2ccccc2N)cc1
AC35: 14.1 µM

CCCCc1c(-c2ccccc2OC)ncn1Cc1ccc(C(C)(C)C)cc1
AC35: 11.8 µM

C=C1C(=O)OC2C1CCC(C)C1C=CC(=O)C12C (configuration not stated)
AC35: 7.41 µM

CN(C[C@H]1N[C@@H](CO)[C@@H]1c1ccc(C2=CCCC2)cc1)C(=O)c1cccc(F)c1
AC35: 1.83 µM

Cc1ccccc1S(=O)(=O)N1CC[C@@H]2[C@@H](CO)Nc3ccc(-c4ccc(C#N)cc4)cc3[C@@H]21
AC35: 4.47 µM

O=C(O)c1ccc(N/N=C/c2ccc3nccnc3c2)cc1
AC35: 15 µM

Nc1ccc(Cn2ccc3c4c(N)nc(N)nc4ccc32)cc1
AC35: 0.0589 µM

COc1cc2c(cc1NC(=O)CN(C)Cc1ccc(OC)c(OC)c1)oc1ccccc12
AC35: 21.5 µM

C[C@@H]1CN([C@H](C)CO)S(=O)(=O)c2ccc(C#Cc3ccncc3)cc2O[C@@H]1CN(C)C(=O)Nc1ccc2c(c1)OCO2
AC35: 19.4 µM

COc1ccc(OC)c(-c2nnc3n2N=C(c2ccc(OC)c(OC4CCCC4)c2)CS3)c1
AC35: 2.71 µM

COc1ccc(S(=O)(=O)Nc2ccc3c(c2)C(=O)N([C@H](C)CO)C[C@@H](C)[C@@H](CN(C)CC2CCCCC2)OCCCC[C@H](C)O3)cc1
AC35: 12.3 µM

BrC(=C\c1ccccc1)/C=N/n1cnnc1
AC35: 2.23 µM

CC1(C(=O)NCc2ccco2)Cc2c(-c3cccc(C(N)=O)c3)ccnc2O1 (configuration not stated)
AC35: 5.1 µM

O=C(Nc1ccc(Br)cc1)c1ccc(F)c(S(=O)(=O)N2CCN(c3ccccn3)CC2)c1
AC35: 9.42 µM

CNC[C@H](CC1CCCCC1)NC[C@H](CO)NCCc1cccc(C(F)(F)F)c1
AC35: 9.23 µM

CN(CCO)c1ccc(/C=N/Nc2nncc3ccccc23)cc1
AC35: 19.9 µM

C[C@@H]1CN([C@@H](C)CO)C(=O)c2cc(N(C)C)ccc2O[C@H]1CN(C)Cc1ccc(C(=O)Nc2ccccc2N)cc1
AC35: 13.2 µM

Cc1ccccc1NC(=O)C(=Cc1ccc(C(=O)O)cc1)C(=O)Nc1ccccc1C
AC35: 5.97 µM

Oc1cccc(-c2nnc(-c3cccc(O)c3)nn2)c1
AC35: 11.9 µM

COc1cc2c(OC(C)=O)c3c(c(-c4ccc5c(c4)OCO5)c2cc1OC)C(=O)OC3
AC35: 0.0216 µM

O=C(NC[C@@H]1N[C@@H](CO)[C@H]1c1ccc(C2=CCCCC2)cc1)c1cccc(F)c1
AC35: 11.1 µM

COc1cccc(-c2cccc(-c3nc(C(=O)NCC(F)(F)F)cc4c3[C@H](CCO)N([S@@](=O)C(C)(C)C)C4)c2)c1
AC35: 8.4 µM

COc1cccc(CN2CCC2(C)C(=O)Nc2cccc3cccnc23)c1F (configuration not stated)
AC35: 14.3 µM

Cc1ccc(S(=O)(=O)Nc2ccc3c(c2)C(=O)N([C@@H](C)CO)C[C@H](C)[C@@H](CN(C)Cc2ccc(C(F)(F)F)cc2)OCCCC[C@@H](C)O3)cc1
AC35: 13.8 µM

COc1cc(/C=N\Nc2nc(-c3ccc(C)cc3)c(NC(C)=O)s2)ccc1O
AC35: 14.4 µM

COc1ccc(CN(C)c2ncnc3sccc23)c(OC)c1OC
AC35: 15.3 µM

Cc1ccc(N2C(=O)c3cccc4c(N)ccc(c34)C2=O)c2cccnc12
AC35: 0.0576 µM
